Patent US6284914A, “Highly water-soluble metalloproteinase inhibitors” (Fuji Yakuhin Kogyo Kabushiki Kaisha, priority 1995, dated 2001)
Values after ≈ are worked out from the molar mass of the structure shown. Structures can show the parent of a compound that is named as a salt.

What was measured:
[1] = molecular target: T1, collagenase (MMP-1) (Homo sapiens, UniProt P03956); assay: Assay for Collagenase Inhibitory Activity (MMP-1); assay type: biochemical; settings: fluorescein-labeled bovine type I collagen substrate, 35° C., 2 hours, pH 7.5; read-out: Inhibitory activities for matrix metalloproeinases (MMPs), MMP-1, IC50 value
T1 construct: endogenous in cells; host or cells: human fibroblast
T1 sequence (P03956 100-469): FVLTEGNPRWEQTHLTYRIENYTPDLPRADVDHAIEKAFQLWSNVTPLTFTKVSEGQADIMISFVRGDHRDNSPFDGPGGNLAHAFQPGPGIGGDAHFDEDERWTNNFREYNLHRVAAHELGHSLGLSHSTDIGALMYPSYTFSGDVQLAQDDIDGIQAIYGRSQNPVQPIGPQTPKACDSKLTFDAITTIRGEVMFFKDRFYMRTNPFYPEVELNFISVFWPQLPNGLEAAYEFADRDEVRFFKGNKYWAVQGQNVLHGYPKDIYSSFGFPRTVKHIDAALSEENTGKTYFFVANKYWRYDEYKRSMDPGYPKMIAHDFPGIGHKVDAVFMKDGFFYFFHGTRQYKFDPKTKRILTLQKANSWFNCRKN
Description: (§1) Inhibitory activities of the compounds represented by the general formula (I) according to the invention for collagenase (metalloproteinase concerned with a tissue destruction) derived from human fibroblast were tested by the method of Y. Murawaki et al., [Journal of Hepatology, 18, p. 328-334 (1993)], and their inhibitory activities for stromelysin derived from human fibroblast were measured by the method of S. S. Twining et al., [Anal. Biochem., 143, p. 30 (1984)].
Inhibitory activities for collagenase (MMP-1) of the compounds of Examples and comparative compounds were measured by the method of Y. Murawaki et al., [Journal of Hepatology, 18, p. 328-334 (1993)]. The latent procollagenase was activated by incubating with mercury aminophenylacetate (2 mM) at 35° C. for 2 hours. The assay was done by using bovine type I collagen labeled with fluorescein as a substrate. The activated collagenase was added to the substrate solution (0.5 mg/ml) in Tris HCl buffer (50 mM, pH 7.5) containing sodium chloride (0.4 M) and calcium chloride (10 mM). The obtained solution was incubated at 35° C. for 2 hours. The enzyme digestion was stopped by the addition of o-phenanthroline (80 mM). The mixture was added with pig spleen elastase solution (25 μg/ml) in the above Tris HCl buffer, and incubated 37° C. for 10 min. The obtained solution was added with 70% ethanol and Tris HCl buffer (170 mM, pH 9.5) containing sodium chloride (0.61 M), whereby the indigested substrate was sedimented by centrifuging at 3000 g for 20 min. The supernatant was taken, and its intensity of fluorescence was determined by the excitation wavelength (495 nm) and the measured wavelength (520 nm), and the inhibitory activity was obtained. IC50 is a concentration of a compound assayed in the digesting enzyme, whereby the splitting of the substrate was decreased to 50% compared with that attained by the enzyme alone.

[2] = molecular target: T2, stromelysin (MMP-3) (Homo sapiens, UniProt P08254); assay: Assay for Stromelysin Inhibitory Activity (MMP-3); assay type: biochemical; settings: fluorescein-labeled casein substrate, 37° C., 2 hours, pH 7.8; read-out: Inhibitory activities for matrix metalloproeinases (MMPs), MMP-3, IC50 value
T2 construct: endogenous in cells; host or cells: human fibroblast
T2 sequence (P08254 100-477): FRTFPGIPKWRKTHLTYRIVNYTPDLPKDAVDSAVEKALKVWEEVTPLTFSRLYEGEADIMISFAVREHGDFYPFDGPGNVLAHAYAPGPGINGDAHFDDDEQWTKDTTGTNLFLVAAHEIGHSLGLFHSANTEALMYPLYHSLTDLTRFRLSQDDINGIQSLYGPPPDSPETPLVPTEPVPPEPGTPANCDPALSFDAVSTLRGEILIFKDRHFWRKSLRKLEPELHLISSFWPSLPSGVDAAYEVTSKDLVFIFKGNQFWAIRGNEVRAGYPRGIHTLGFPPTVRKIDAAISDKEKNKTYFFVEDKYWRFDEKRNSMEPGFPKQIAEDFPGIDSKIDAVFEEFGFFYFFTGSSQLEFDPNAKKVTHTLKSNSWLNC
Description: as §1
Inhibitory activities for stromelysin (MMP-3) of the compounds of Examples and comparative compounds were measured by the method of S. S. Twining et al., [Anal. Biochem., 143, p. 30 (1984)]. The latent prostromelysin was incubated with human plasmin (20 μg/ml) for the activation at 37° C. for 2 hours, and then the incubate was added with diisopropyl fluorophosphate solution (2.8 mg/ml) to stop the reaction. The assay was done by using casein labeled with fluorescein as the substrate. The activated stromelysin was added to a substrate solution (1 mg/ml) in Tris HCl buffer (50 mM, pH 7.8) containing calcium chloride (10 mM). The obtained solution was incubated at37° C. for 2 hours. The enzyme digestion forthesubstrate was stopped by adding 5% trichloroacetic acid. The indigested substrate was sedimented by centrifuging at 3000 g for 20 min. The supernatant was taken and added with Tris HCl buffer (0.5 M, pH 8.5), whereby its intensity of fluorescence was determined by the excitation wavelength (495 nm) and the measured wavelength (520 nm), and the inhibitory activity was obtained. IC50 is a concentration of a compound assayed in the digesting enzyme, whereby the splitting of the substrate was decreased to 50% compared with that attained by the enzyme alone.

[3] = molecular target: T3, TNF-α converting enzyme (Homo sapiens, UniProt P78536); assay: Assay for Suppression of TNF-α Production (LPS-stimulated U937 cells); assay type: cell-based; settings: U937 cells (PMA-differentiated), Lipopoplysaccaride 0.1 μg/ml, 37° C., 6 hours, TNF-α in supernatant; read-out: Inhibitory activities for TNF-α converting enzyme, IC50 value
T3 construct: Human monocyte derived leukemia cell-line U937; endogenous in cells; host or cells: U937 (PMA-differentiated, LPS-stimulated)
T3 sequence (P78536 215-824): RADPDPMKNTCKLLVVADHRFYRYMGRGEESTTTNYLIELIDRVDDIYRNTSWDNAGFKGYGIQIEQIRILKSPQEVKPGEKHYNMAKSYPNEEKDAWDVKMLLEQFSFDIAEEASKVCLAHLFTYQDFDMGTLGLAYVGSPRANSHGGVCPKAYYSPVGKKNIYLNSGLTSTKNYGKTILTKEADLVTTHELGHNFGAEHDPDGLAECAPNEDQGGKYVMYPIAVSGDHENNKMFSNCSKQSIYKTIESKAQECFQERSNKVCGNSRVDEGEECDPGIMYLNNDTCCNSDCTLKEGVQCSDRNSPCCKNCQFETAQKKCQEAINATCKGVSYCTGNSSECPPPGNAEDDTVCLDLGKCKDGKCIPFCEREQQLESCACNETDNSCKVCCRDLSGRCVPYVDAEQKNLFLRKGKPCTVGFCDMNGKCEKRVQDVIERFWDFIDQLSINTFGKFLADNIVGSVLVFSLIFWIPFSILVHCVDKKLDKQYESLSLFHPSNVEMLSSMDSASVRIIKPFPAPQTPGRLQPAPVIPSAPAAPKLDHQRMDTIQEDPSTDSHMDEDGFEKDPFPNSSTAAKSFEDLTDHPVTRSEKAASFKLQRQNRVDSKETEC
Description: Human monocyte derived leukemia cell-line U937 [5% bovine fetal serum (Men-eki Seibutsu Ken) was added to RPMI1640 (Nissui Seiyaku) and incubated in a 5% CO2 incubation chamber at 37° C., whereby 1×10^6 cells/1 ml were placed into each well of a multi-well plate and then incubated in presence of Phorbol 12-myristate 13-acetate (10^-7 M, Wako Junyaku) overnight and differentiated to macrophage like cells.] was added with Lipopoplysaccaride (0.1 μg/ml, Sigma) derived from E.coli 0127:B8 strain alone or together with a compound in Examples, and incubated in a 5% CO2 incubation chamber at 37° C. for 6 hours. After the incubation, the culture medium was taken and centrifuged at 3000 g for 10 min., whereby the supernatant was diluted with purified water forthe measurement using the TNF-α measurement kit (Genzyme) (Table 2).

[4] = Measurement of Solubility in Water; assay type: physicochemical; settings: water, distilled water, 20±5° C., 30 min., checked by eye
Description: A compound of Examples or a comparative compound was added to distilled water and shaken vigorously at 20±5° C. for 30 seconds at 5 min. interval. After 30 min., it was checked by watching with eye whether the compound was dissolved or not.

SMILES | IC50 [1] | IC50 [2] | IC50 [3] | solubility at 0.5 h [4]
CCC(=N)NCc1ccc(C[C@H](NC(=O)[C@H](CC(C)C)C(CCCc2ccccc2)C(=O)NO)C(=O)NC)cc1 (single isomer, unassigned) [Example 11, N-[4-(N-Hydroxyamino)-2(R)-isobutyl-3(R or S)-(3-phenyltrimethylene)succinyl]-L-4'-propionimidoyliminomethylenephenylalanine-N-methylamide Monoacetate] | 5.8 nM | 9 nM | 400 nM | 
CNC(=O)[C@H](Cc1ccc(S(=O)(=O)O)cc1)NC(=O)[C@H](CC(C)C)C(CCCc1ccccc1)C(=O)NO (stereo partly drawn) [Example 4, N-[4-(N-Hydroxyamino)-2(R)-isobutyl-3(RS)-(3-phenyltrimethylene)succinyl]-L-4'-sulfophenylalanine-N-methylamide, Monosodium Salt] |  |  | 510 nM | 150 mg/mL
CCCOC[C@H](C(=O)N[C@@H](Cc1ccc(OC)cc1)C(=O)NC)[C@H](CSC(C)C)C(=O)NO [Comparative Compound 4, N-[4-(N-Hydroxyamino)-2(R)-n-propyloxymethylene-3(S)-isopropylthiomethylenesuccinyl]-O-methyl-L-tyrosine-N-methylamide, reference compound] | 11 nM | 100 nM |  | < 1 mg/mL
CNC(=O)[C@H](Cc1cccc(OS(=O)(=O)O)c1)NC(=O)[C@H](CC(C)C)C(CCCc1ccccc1)C(=O)NO (single isomer, unassigned) [Example 15, N-[4-(N-Hydroxyamino)-2(R)-isobutyl-3(R or S)-(3-phenyltrimethylene)succinyl]-O-sulfo-L-meta-tyrosine-N-methylamide, Monosodium Salt] | 8 nM | 5.8 nM |  | 120 mg/mL
CNC(=O)[C@H](Cc1ccc(S(=O)(=O)O)cc1)NC(=O)[C@H](CC(C)C)C(CSc1cccs1)C(=O)NO (single isomer, unassigned) [Example 5, N-[4-(N-Hydroxyamino)-2(R)-isobutyl-3(R or S)-(thienylthiomethylene)succinyl]-L-4'-sulfophenylalanine-N-methylamide, Monosodium Salt] |  |  | 500 nM | 

The next lines start with the values.

IC50 [1] | IC50 [2] | IC50 [3] | solubility at 0.5 h [4] | SMILES
6 nM | 6 nM | 98 nM | 30 mg/mL (≈ 57.2 mM) | CNC(=O)[C@H](Cc1ccc(NC(=N)N)cc1)NC(=O)[C@H](CC(C)C)C(CCCc1ccccc1)C(=O)NO (single isomer, unassigned) [Example 8, N-[4-(N-Hydroxyamino)-2(R)-isobutyl-3(R or S)-(3-phenyltrimethylene)succinyl]-L-4'-guanidophenylalanine-N-methylamideMonoacetate]
 |  | 7000 nM |  | CNC(=O)[C@H](Cc1ccc(NC(=N)N)cc1)NC(=O)[C@H](CC(C)C)[C@H](O)C(=O)NO [Example 16, N-[4-(N-Hydroxyamino)-2(R)-isobutyl-3(S)-hydroxysuccinyl]-L-4'-guanidophenylalanine-N-methylamide Monoacetate]
8 nM | 10 nM |  | 100 mg/mL | COc1ccc(NC(=O)[C@H](Cc2ccc(OS(=O)(=O)O)cc2)NC(=O)[C@H](CC(C)C)C(CCCc2ccccc2)C(=O)NO)cc1 (stereo partly drawn) [Example 7, N-[4-(N-Hydroxyamino)-2(R)-isobutyl-3(RS)-(3-phenyltrimethylene)succinyl]-O-sulfo-L-tyrosine-N-p-methoxyphenylamide, Monosodium Salt]
8 nM | 8 nM |  | > 320 mg/mL | CNC(=O)[C@H](Cc1ccc(S(=O)(=O)O)cc1)NC(=O)[C@H](CC(C)C)C(CSc1cccs1)C(=O)NO (single isomer, unassigned) [Example 5 (Isomer A), N-[4-(N-Hydroxyamino)-2(R)-isobutyl-3(R or S)-(thienylthiomethylene)succinyl]-L-4'-sulfophenylalanine-N-methylamide, Monosodium Salt]
4.2 nM | 200 nM |  | > 250 mg/mL | CNC(=O)[C@H](Cc1ccc(S(=O)(=O)O)cc1)NC(=O)C(CC(=O)NO)CC(C)C (stereo partly drawn) [Example 2, N-[4-(N-Hydroxyamino)-2(RS)-isobutylsuccinyl]-L-4'-sulfophenylalanine-N-methylamide, Monosodium Salt]
